Reference: patent US11432549B2, “Carbamoyl triazolinone based herbicide combinations and method of use” (Arysta LifeScience Corporation, priority 2009, dated 2022)
Read-outs that look alike come from different tables or passages of the source.

How the values were obtained:
Green Foxtail = assay: Ex 5/7 greenhouse spray, bleaching/injury ratings; assay type: in vivo; conditions: Green Foxtail
Experimental: (§1) Containers were watered as needed based on species and water usage. The greenhouse was heated to keep temperatures above 50° F. (10° C.) and ventilated as needed to keep temperatures below 100° F. (38° C.). Typical daytime temperatures in the greenhouse were 80-90° F. (27-32° C.) and nighttime temperatures were between 50-60° F. (10-16° C.). The soil employed was Promix BX potting soil. Overall moisture conditions were normal and the closest weather station was on-site. Conditions and equipment employed in this Example are tabulated below in Tables 5-1 and 5-2.
(§2) All containers were moved outdoors from the greenhouse and arranged in blocks by treatment for the herbicide applications. A single spray application was applied to each block containing four repetitions of each species for each treatment. Plants were then immediately returned to the greenhouse and irrigated with approximately ¼″ water 1-3 hrs after treatment with a hose end sprayer. Only the Poa plants were trimmed with scissors two days prior to treatment at a height of approximately 3 inches.
(§3) Referring to FIGS. 2A-B, 3A-C, 4A-C, and 5A-D, all ratings of injury or bleaching are based on a scale from 1 to 9. […] Any bleaching measurement 4 and above was considered unacceptable for desirable turf species. In injury measurements, 1 indicates no injury while 9 indicates a dead plant. Any injury measurement 4 and above was considered unacceptable for desirable turf species). Density correlates with percent cover where 1 indicates no grass while 9 indicates a full pot.
(§4) Replications employed include 4, Untreated treatments: 1, Design: Randomized Complete Block, Treatment units: US standard, Treated plot size Width: 4 feet, Treated plot size Length: 4 feet, Application volume: 50 gal/ac, Mix size: 0.5562 liters, Mix overage: 100%, Format definitions: G-All7.DEF, G-All7.FRM.
(§5) In evaluating synergism, the data from Example 5 above were converted to % of control. This was done based on the data provided on a 1-9 scale detailed in Example 5. Expected values were computed from the % of control data by the formula for expected control=[…], where A is the % of control value for herbicide A alone and B is the % of control value for herbicide B alone.

Crabgrass sp. = assay: Ex 5/7 greenhouse spray, bleaching/injury/density ratings; assay type: in vivo; conditions: Crabgrass
Experimental: as §1, §2
(§6) Transplanted tillering Kentucky Bluegrass was 5 to 6 months old, transplanted Poa annua was 5 to 6 months old. Tall fescue was seeded into the crabgrass pots. St. Augustine plants (Floratam and Saphire) were shipped from Port St. Lucie, Fla. Only two replicates of Saphire St. Augustine grass were used due to plant availability.
as §3, §4, §5

Poa annua = assay: Ex 5/7 greenhouse spray, bleaching/injury ratings; assay type: in vivo; conditions: Poa
Experimental: as §1, §2, §6, §3, §4, §5

St. Augustine-Floratum = conditions: St. Augustine Floratam
Experimental: as §1, §2, §6, §3, §4, §5

St. Augustine-Sapphire = conditions: in vivo
Experimental: as §1, §2, §6, §3, §4, §5

Digitaria ciliaris = assay: Ex 1 pot test, visual % damage; assay type: in vivo
[1] = Days After First/Last Applic. 41 41, Trt-Eval Interval 31 DA-A

Structure (SMILES): CC(C)c1nn(C(=O)NC(C)(C)C)c(=O)n1N [2 Amicarbazone]
- Injury (Green Foxtail; 6 DA-A): 1.5 f
- Injury (Green Foxtail; 7 DA-A): 1.5 c
- Bleaching (Green Foxtail; 10 DA-A): 1.0 c
- Bleaching (Green Foxtail; 14 DA-A): 1
- Injury (Green Foxtail; 14 DA-A): 1.3
- Bleaching (Green Foxtail; 16 DA-A): 1
- Injury (Green Foxtail; 16 DA-A): 1.8
- Bleaching (Green Foxtail; 20 DA-A): 1.3 c
- Injury (Green Foxtail; 20 DA-A): 1.8
- Injury (Green Foxtail; 24 DA-A): 2
- Bleaching (Green Foxtail; 31 DA-A): 3.0 a
- Injury (Green Foxtail; 31 DA-A): 2.8
- Bleaching (Crabgrass sp.; 6 DA-A): 1.3 f
- Injury (Crabgrass sp.; 6 DA-A): 1.5
- Bleaching (Crabgrass sp.; 7 DA-A): 1.0 c
- Injury (Crabgrass sp.; 7 DA-A): 1.0 e
- Bleaching (Crabgrass sp.; 10 DA-A): 1.0 c
- Bleaching (Crabgrass sp.; 14 DA-A): 1.0 c
- Injury (Crabgrass sp.; 14 DA-A): 1
- Bleaching (Crabgrass sp.; 16 DA-A): 1.3 c
- Injury (Crabgrass sp.; 16 DA-A): 1.3
- Bleaching (Crabgrass sp.; 20 DA-A): 1.3
- Injury (Crabgrass sp.; 20 DA-A): 1.3 c
- % Crab Cvr (Crabgrass sp.; 24 DA-A): 7.8 a %
- Injury (Crabgrass sp.; 24 DA-A): 1.5 c
- % Crab Cvr (Crabgrass sp.; 31 DA-A): 8.3 a %
- Bleaching (Crabgrass sp.; 31 DA-A): 1.0 b
- % Crab Cvr (Crabgrass sp.; 41 DA-A): 9.0 a %
- Bleaching (Crabgrass sp.; 41 DA-A): 1.0 a
- Bleaching (Poa annua; 6 DA-A): 1.0 a
- Bleaching (Poa annua; 7 DA-A): 1.0 a
- Injury (Poa annua; 10 DA-A): 1.0 e
- Bleaching (Poa annua; 14 DA-A): 1.0 b
- Injury (Poa annua; 14 DA-A): 1.8
- Bleaching (Poa annua; 16 DA-A): 1.0 b
- Injury (Poa annua; 16 DA-A): 2.5
- Bleaching (Poa annua; 20 DA-A): 1.0 a
- Injury (Poa annua; 20 DA-A): 2.5
- Injury (Poa annua; 24 DA-A): 2.5 cd
- Injury (Poa annua; 31 DA-A): 3.3 c
- Injury (Poa annua; [1]): 3.8 c
- Bleaching (St. Augustine-Floratum; 6 DA-A): 1.0 a
- Bleaching (St. Augustine-Floratum; 7 DA-A): 1.0 c
- Bleaching (St. Augustine-Floratum; 10 DA-A): 1.0 c
- Bleaching (St. Augustine-Floratum; 14 DA-A): 1.0 c
- Bleaching (St. Augustine-Floratum; 16 DA-A): 1.0 e
- Bleaching (St. Augustine-Floratum; 20 DA-A): 1.0 b
- Bleaching (St. Augustine-Floratum; 31 DA-A): 1.0 c
- Bleaching (St. Augustine-Floratum; [1]): 1.0 a
- TurfQuality (St. Augustine-Floratum; [1]): 6.8 bc
- TurfQuality (St. Augustine-Sapphire): 7.0 a

Structure (SMILES): CC(C)c1nn(C(=O)NC(C)(C)C)c(=O)n1N [3 Amicarbazone]
- Injury (Green Foxtail; 6 DA-A): 3.8 de
- Injury (Green Foxtail; 7 DA-A): 3.5 b
- Bleaching (Green Foxtail; 10 DA-A): 1.0 c
- Bleaching (Green Foxtail; 14 DA-A): 1
- Injury (Green Foxtail; 14 DA-A): 2.5 f
- Bleaching (Green Foxtail; 16 DA-A): 1
- Injury (Green Foxtail; 16 DA-A): 2.8 cd
- Bleaching (Green Foxtail; 20 DA-A): 1.3 c
- Injury (Green Foxtail; 20 DA-A): 3.5 cd
- Injury (Green Foxtail; 24 DA-A): 3.8 c
- Bleaching (Green Foxtail; 31 DA-A): 3.3 a
- Injury (Green Foxtail; 31 DA-A): 5.3 bc
- Bleaching (Crabgrass sp.; 6 DA-A): 1.0 f
- Injury (Crabgrass sp.; 6 DA-A): 1
- Bleaching (Crabgrass sp.; 7 DA-A): 1.0 c
- Injury (Crabgrass sp.; 7 DA-A): 1.0 e
- Bleaching (Crabgrass sp.; 10 DA-A): 1.0 c
- Bleaching (Crabgrass sp.; 14 DA-A): 1.0 c
- Injury (Crabgrass sp.; 14 DA-A): 1
- Bleaching (Crabgrass sp.; 16 DA-A): 1.0 c
- Injury (Crabgrass sp.; 16 DA-A): 1.5
- Bleaching (Crabgrass sp.; 20 DA-A): 1
- Injury (Crabgrass sp.; 20 DA-A): 1.5 c
- % Crab Cvr (Crabgrass sp.; 24 DA-A): 6.3 b %
- Injury (Crabgrass sp.; 24 DA-A): 1.5 c
- % Crab Cvr (Crabgrass sp.; 31 DA-A): 6.3 b %
- Bleaching (Crabgrass sp.; 31 DA-A): 1.0 b
- % Crab Cvr (Crabgrass sp.; 41 DA-A): 6.8 b %
- Bleaching (Crabgrass sp.; 41 DA-A): 1.0 a
- Bleaching (Poa annua; 6 DA-A): 1.0 a
- Bleaching (Poa annua; 7 DA-A): 1.0 a
- Injury (Poa annua; 10 DA-A): 3.5 bc
- Bleaching (Poa annua; 14 DA-A): 1.8 b
- Injury (Poa annua; 14 DA-A): 4.8 b
- Bleaching (Poa annua; 16 DA-A): 2.0 ab
- Injury (Poa annua; 16 DA-A): 5.0 bc
- Bleaching (Poa annua; 20 DA-A): 2.0 a
- Injury (Poa annua; 20 DA-A): 5.5 c
- Injury (Poa annua; 24 DA-A): 5.3 b
- Injury (Poa annua; 31 DA-A): 7.0 ab
- Injury (Poa annua; [1]): 7.5 ab
- Bleaching (St. Augustine-Floratum; 6 DA-A): 1.0 a
- Bleaching (St. Augustine-Floratum; 7 DA-A): 1.0 c
- Bleaching (St. Augustine-Floratum; 10 DA-A): 1.0 c
- Bleaching (St. Augustine-Floratum; 14 DA-A): 1.0 c
- Bleaching (St. Augustine-Floratum; 16 DA-A): 1.3 e
- Bleaching (St. Augustine-Floratum; 20 DA-A): 1.3 b
- Bleaching (St. Augustine-Floratum; 31 DA-A): 1.0 c
- Bleaching (St. Augustine-Floratum; [1]): 1.0 a
- TurfQuality (St. Augustine-Floratum; [1]): 7.3 ab
- TurfQuality (St. Augustine-Sapphire): 7.5 a

Structure (SMILES): CCc1cccc(C)c1N(COC(C)C)C(=O)CCl [Propisochlor, 2-chloro-N-(2-ethyl-6-methylphenyl)-N-[(1-methylethoxy)methyl]acetamide]
- weeding effect index (Digitaria ciliaris; 5 DAT, all tested dose rate, one-leaf stage): less than 50%
- percentage control (Digitaria ciliaris; single application 50 g/ha, 5 DAT): 28%
- percentage control (Digitaria ciliaris; single application 50 g/ha, 8 DAT): 70%
- percentage control (Digitaria ciliaris; single application 50 g/ha, 14 DAT): 76%
- percentage control (Digitaria ciliaris; single application 50 g/ha, 21 DAT): 88%
- percentage control (Digitaria ciliaris; single application 50 g/ha, 28 DAT): 82%
- percentage control (Digitaria ciliaris; single application 100 g/ha, 5 DAT): 42%
- percentage control (Digitaria ciliaris; single application 100 g/ha, 8 DAT): 78%
- percentage control (Digitaria ciliaris; single application 100 g/ha, 14 DAT): 86%
- percentage control (Digitaria ciliaris; single application 100 g/ha, 21 DAT): 94%
- percentage control (Digitaria ciliaris; single application 100 g/ha, 28 DAT): 92%
- percentage control (Digitaria ciliaris; single application 200 g/ha, 5 DAT): 44%
- percentage control (Digitaria ciliaris; single application 200 g/ha, 8 DAT): 80%
- percentage control (Digitaria ciliaris; single application 200 g/ha, 14 DAT): 90%
- percentage control (Digitaria ciliaris; single application 200 g/ha, 21 DAT): 98%
- percentage control (Digitaria ciliaris; single application 200 g/ha, 28 DAT): 98%
